Assay [1] has as its system NALM6 cells. Put plainly: Immunoblot of apoptosis markers (cleaved caspase 3, caspase 7, PARP1) in NALM6 cells. The conditions noted are these: NALM6, 24-hour treatment with KDM inhibitor. The class given is cell-based, human. As for the experimental part:
Cells were treated as indicated, and cell extracts were prepared in RIPA buffer ([…] Tris-HCl, pH 8, 150 mM NaCL, 1 mM EDTA, 1% NP-40, and 0.25% deoxycholate) supplemented with protease inhibitor tablets (Roche Molecular Biochemicals) and phosphatase inhibitors (1 mM NaF, 1 mM Na3VO4, and 1 mM β-glycerophosphate). Protein extracts were incubated overnight at 4° C. with shaking with 1 μg of antibodies against EHMT2 (Sigma G6919), EHMT1 (Millipore 09-078), or pan phospho-threonine (Millipore AB1607). Protein A/G plus agarose beads (Santa Cruz sc-2003) were added, and the mixture was incubated 2 h at 4° C. The immunoprecipitates were separated on SDS-PAGE. […]
FIGS. 40A, 40B, 40C, 40D-1, 40D-2, 40D-3, and 40D-4 show Aurora kinase B inhibitors sensitizing NALM6 cells to GC-induced cell death. As shown in FIGS. 40A and 40B, NALM6 cells were treated with the indicated dex concentration in addition to 0.75 μM ZM447439 (FIG. 40A), 16 nM AZD2811 (FIG. 40B), or equivalent volume of vehicle DMSO for 72 h, and cell survival was measured by a fluorescence metabolic assay. In each condition, the value measured with dex was normalized to the fluorescence value measured with ethanol. Percentage of survival is shown as the mean±SEM of 4 independent experiments and p-values for individual dex concentrations were calculated using a paired t-test. *p≤0.05, **p≤0.01, * * *p≤0.001. […]

The test system of assay [2] is phosphorylation of GR or HP1γ. Put plainly: Immunoblot of GR and HP1γ phosphorylation in A549 cells. The class given is cell-based, human. The conditions noted are these: 2 μM, 24 h. As for the experimental part:
Cos-7 or A549 cells were seeded on 10-cm dishes the day before transfection. Cells were transiently transfected (where indicated) using Lipofectamine 2000 (Invitrogen) with 5 μg each of the indicated plasmids according to the manufacturer's protocol. At 48 h after transfection, cells were treated (or not) with dex for the indicated time period, and cell extracts were prepared in RIPA buffer (50 mM Tris-HCl, pH 8, 150 mM NaCl, 1 mM EDTA, 1% NP-40 and 0.25% deoxycholate) supplemented with protease inhibitor tablets (Roche Molecular Biochemicals) and phosphatase inhibitors (1 mM NaF, 1 mM Na3VO4 and 1 mM β-glycerophosphate). Protein extracts were incubated with 1 μg of the indicated primary antibodies overnight at 4° C. with shaking. Protein A/G Plus Agarose (Santa Cruz sc-2003) beads were added and the mixture was incubated 2 hr at 4° C. The immunoprecipitates were separated on SDS-PAGE. […] In immunoprecipitation experiments 3% of the input of each sample was analyzed by immunoblot using the antibodies listed.
102371 Aurora kinase B inhibition has no effect of phosphorylation of GR or HP1γ as highlighted in the results as shown in FIG. 27E. […] Whole-cell extracts were analyzed with the listed antibodies by immunoblot.
For orientation: In western blotting, separated proteins are transferred to a membrane and probed.

The record followed here is US20200181284A1, “EPIGENETIC INHIBITORS FOR SENSITIZING HEMATOLOGIC OR OTHER MALIGNANCIES TO GLUCOCORTICOID THERAPY” (UNIVERSITY OF SOUTHERN CALIFORNIA, priority 2017, published 2020).

Structures are written as SMILES.

Turning to `Clc1ccc(N/N=C(\c2ccccc2)c2ccccn2)nc1` [JIB-04, 5-chloro-N-[(E)-[phenyl(pyridin-2-yl)methylidene]amino]pyridin-2-amine], the “dex-induced cleavage of caspase-3, caspase-7, and PARP1” value in assay [1] was “enhanced”.

Take `COc1cc2c(Nc3ccc(NC(=O)c4ccccc4)cc3)ncnc2cc1OCCCN1CCOCC1` [ZM447439, N-[4-[[6-methoxy-7-(3-morpholin-4-ylpropoxy)quinazolin-4-yl]amino]phenyl]benzamide]: in assay [2], the “phosphorylation of GR or HP1γ” value is “no effect”.
